Experiment: Steroid administration with ADC, toxicity symptoms reported by subjects
Type: in vivo
Conditions: steroid given with ADC dosage regimes

With `C[C@@H]1C[C@H]2[C@@H]3CCC4=CC(=O)C=C[C@]4(C)[C@@]3(F)[C@@H](O)C[C@]2(C)[C@@]1(O)C(=O)CO` [dexamethasone, (8S,9R,10S,11S,13S,14S,16R,17R)-9-Fluoro-11,17-dihydroxy-17-(2-hydroxyacetyl)-10,13,16-trimethyl-6,7,8,9,10,11,12,13,14,15,16,17-dodecahydro-3H-cyclopenta[a]phenanthren-3-one] the “frequency and/or severity of toxicity symptom reported by subjects” value was “reduced the frequency and/or severity of toxicity symptom”.
